Measured values as given in ChEMBL document CHEMBL5321281, “Synthesis and Biological Evaluation of Heterocyclic Ring-Fused 20(S)-Protopanaxadiol Derivatives as Potent Antiosteoporosis Agents” (J Med Chem, 2023).
Active and inactive are the calls of the source. The calls are words filed in the database; no cut-off is given here.

Tests used:
[1] = Toxicity in ovariectomy induced osteoporosis C57BL/6 mouse model assessed as body weight change at 1 to 3 mg/kg, ip and measured for 6 weeks; format: organism-based; settings: in vivo, 1008 h, dose 1-3 mg/kg
[2] = test system: BMMC; experiment: Anti-osteoclastogenic activity in C57/BL6 mouse BMMC cells assessed as inhibition of RANKL-induced osteoclast differentiation at 0.01 to 5 uM incubated for 5 to 7 days in presence of M-CSF by TRAP staining based microscopic analysis relative to control; format: functional, cell-based; settings: dose 0.01-5 µM, time 5-7 day
[3] = test system: MC3T3-E1; experiment: Induction of osteoblastogenesis in beta-glycerophosphate and vitamin C stimulated mouse MC3T3-E1 cells assessed as increase in ALP activity at 0.1 uM incubated for 7 days by ALP staining based microscopic analysis; format: functional, cell-based; settings: time 7.0 day
[4] = test system: BMMC; experiment: Anti-osteoclastogenic activity in C57/BL6 mouse BMMC cells assessed as inhibition of RANKL-stimulated osteoclastogenesis at 1 uM and compound added at day 3 to 5 (mid stage) and measured after 5 days in presence of M-CSF by TRAP staining based microscopic analysis relative to control; format: functional; settings: 120 h, time 5 day
[5] = Half life in ICR mouse at 1 mg/kg, iv and measured upto 24 hrs by LC-MS/MS analysis; format: ADME, organism-based; settings: in vivo
[6] = Half life in ICR mouse at 10 mg/kg, po and measured upto 24 hrs by LC-MS/MS analysis; format: ADME, organism-based; settings: in vivo
[7] = test system: BMMC; experiment: Cytotoxicity against C57/BL6 mouse BMMC cells assessed as reduction in cell viability at 10 uM incubated for 24 hrs by CCK-8 assay; format: toxicity, cell-based
[8] = test system: BMMC; experiment: Anti-osteoclastogenic activity in C57/BL6 mouse BMMC cells assessed as inhibition of RANKL-induced osteoclast differentiation at 0.01 uM incubated for 5 to 7 days in presence of M-CSF by TRAP staining based microscopic analysis relative to control; format: functional; settings: time 5-7 day
[9] = test system: BMMC; experiment: Anti-osteoclastogenic activity in C57/BL6 mouse BMMC cells assessed as reduction in RANKL-induced CTSK protein expression level at 0.1 uM incubated for 1 to 3 days in presence of M-CSF by Western blot anlaysis; format: functional, cell-based; settings: time 1-3 day
[10] = Cmax in ICR mouse at 10 mg/kg, po and measured upto 24 hrs by LC-MS/MS analysis; format: ADME, organism-based; set-up: dose 10 mg/kg, time < 24 hrs, route po; settings: in vivo

For `C=C(CCC=C(C)C)[C@H]1CC[C@]2(C)[C@@H]1[C@H](O)C[C@@H]1[C@@]3(C)Cc4cnc(C)nc4C(C)(C)[C@@H]3CC[C@]12C`, the Activity [1] was “Non-Toxic”, the inhibition [2] was “Dose-Dependent Effect” and the Activity [3] was “Active”. It also gave an inhibition at 1 µM [4] of 94.4%, a half-life [5] of 20.2 min and a half-life [6] of 61.8 min. The Activity [7] was “>= 100%”, the inhibition at 0.01 µM [8] was 44.4% and the Activity [9] was “Active”. For the same molecule, the Cmax [10] was 823 ng/mL.
